What all share (format): biochemical
One test has as its target T1, MAP4K3 (Homo sapiens, UniProt Q8IVH8).
T1 construct: lines 1-140) and Reaction Biology
T1 sequence (Q8IVH8 1-894): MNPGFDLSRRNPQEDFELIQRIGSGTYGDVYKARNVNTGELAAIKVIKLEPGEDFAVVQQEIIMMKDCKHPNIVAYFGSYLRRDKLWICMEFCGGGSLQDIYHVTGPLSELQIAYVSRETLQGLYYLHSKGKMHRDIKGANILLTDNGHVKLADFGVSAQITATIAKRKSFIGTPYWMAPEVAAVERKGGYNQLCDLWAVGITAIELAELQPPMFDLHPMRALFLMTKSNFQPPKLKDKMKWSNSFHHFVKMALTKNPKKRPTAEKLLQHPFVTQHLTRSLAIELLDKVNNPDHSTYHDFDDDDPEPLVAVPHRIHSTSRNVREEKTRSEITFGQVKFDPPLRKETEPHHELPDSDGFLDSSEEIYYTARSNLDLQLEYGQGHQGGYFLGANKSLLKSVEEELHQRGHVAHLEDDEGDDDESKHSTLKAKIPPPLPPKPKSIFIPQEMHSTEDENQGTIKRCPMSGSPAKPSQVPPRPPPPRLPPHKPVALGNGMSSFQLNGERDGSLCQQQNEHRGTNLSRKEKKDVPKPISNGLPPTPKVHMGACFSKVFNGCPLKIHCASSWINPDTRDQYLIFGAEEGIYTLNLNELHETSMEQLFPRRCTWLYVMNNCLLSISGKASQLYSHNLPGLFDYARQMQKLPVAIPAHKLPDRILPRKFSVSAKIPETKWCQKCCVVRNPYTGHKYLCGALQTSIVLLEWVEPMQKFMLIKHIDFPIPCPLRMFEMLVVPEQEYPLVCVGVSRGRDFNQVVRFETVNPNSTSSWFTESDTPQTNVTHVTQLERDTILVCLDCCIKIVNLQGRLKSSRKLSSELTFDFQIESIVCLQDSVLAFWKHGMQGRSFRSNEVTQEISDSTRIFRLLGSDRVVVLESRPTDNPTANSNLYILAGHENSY
As to the kind of experiment: Dundee kinase panel. The note with it: for remaining activity at 1 µM: read-out: residual activity. As for the experimental part:
(§1) Compounds were screened at 1 μM. For key hits, pIC50 values were then determined by HTRF as above. […] Stability in mouse and human liver microsomes was determined by Cyprotex.

The next test deals with T2, CAMK1 (Homo sapiens, UniProt Q14012).
T2 construct: lines 1-140) and Reaction Biology
T2 sequence (Q14012 whole entry): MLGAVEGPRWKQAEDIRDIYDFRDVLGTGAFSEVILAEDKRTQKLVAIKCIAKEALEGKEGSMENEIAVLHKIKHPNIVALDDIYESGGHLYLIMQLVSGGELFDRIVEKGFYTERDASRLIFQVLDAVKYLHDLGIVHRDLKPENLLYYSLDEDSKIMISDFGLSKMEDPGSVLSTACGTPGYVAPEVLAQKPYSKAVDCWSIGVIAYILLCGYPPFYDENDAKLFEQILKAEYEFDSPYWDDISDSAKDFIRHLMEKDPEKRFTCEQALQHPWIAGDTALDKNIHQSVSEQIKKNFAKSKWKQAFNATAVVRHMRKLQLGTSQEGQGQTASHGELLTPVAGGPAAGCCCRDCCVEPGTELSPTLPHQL
As to the kind of experiment: Dundee kinase panel. The note with it: for remaining activity at 1 µM: read-out: residual activity. As for the experimental part:
as §1

The next test has as its target T3, EPH-A4 (Homo sapiens, UniProt P54764).
T3 construct: lines 1-140) and Reaction Biology
As to the kind of experiment: Dundee kinase panel. The note with it: for remaining activity at 1 µM: read-out: residual activity. How it is done:
as §1

A further test has as its target MLK1/MAP3K9 (Homo sapiens, UniProt P80192). As to the kind of experiment: HTRF Transcreener ADP kinase assay. The note with it: for IC50: HTRF Transcreener ADP assay. How it is done:
(§2) MAP4K4 kinase activity was monitored using the CisBio HTRF Transcreener ADP assay, a competitive immunoassay with a reproducible Z’ > 0.6. In the detection step, endogenous ADP and d2-labeled ADP compete for binding an anti-ADP monoclonal antibody labeled with Eu^3+ cryptate. A ratiometric fluorescent readout is used at 665 and 620 nm. […] Assays were run in Greiner low volume plates with a final reaction volume of 10 μl. Percent inhibition was calculated from 100% activity of MAP4K4 (DMSO only) and 0% activity (no enzyme added). Data were either reported as % inhibition at a single dose or as pIC50 values derived from dose response curves (pIC50 = -log[IC50]).
(§3) Kinase selectivity profiling was performed by the International Centre for Kinase Profiling, MRC Protein Phosphorylation and Ubiquitylation Unit (141 kinases; Premier Screen, http://www.kinase-screen.mrc.ac.uk), using a [γ-^33P]ATP filter binding assay ([Bain et al., 2007]). Compounds were screened at 1 μM. For key hits, pIC50 values were then determined by HTRF as above. More complete kinome profiling was performed by Reaction Biology (376 kinases). Stability in mouse and human liver microsomes was determined by Cyprotex.

In another test the target is ABL1 (Homo sapiens, UniProt P00519). As to the kind of experiment: HTRF Transcreener ADP kinase assay. The note with it: for IC50: HTRF Transcreener ADP assay. How it is done: as §2, §3
Chain of ABL1 (P00519 whole entry): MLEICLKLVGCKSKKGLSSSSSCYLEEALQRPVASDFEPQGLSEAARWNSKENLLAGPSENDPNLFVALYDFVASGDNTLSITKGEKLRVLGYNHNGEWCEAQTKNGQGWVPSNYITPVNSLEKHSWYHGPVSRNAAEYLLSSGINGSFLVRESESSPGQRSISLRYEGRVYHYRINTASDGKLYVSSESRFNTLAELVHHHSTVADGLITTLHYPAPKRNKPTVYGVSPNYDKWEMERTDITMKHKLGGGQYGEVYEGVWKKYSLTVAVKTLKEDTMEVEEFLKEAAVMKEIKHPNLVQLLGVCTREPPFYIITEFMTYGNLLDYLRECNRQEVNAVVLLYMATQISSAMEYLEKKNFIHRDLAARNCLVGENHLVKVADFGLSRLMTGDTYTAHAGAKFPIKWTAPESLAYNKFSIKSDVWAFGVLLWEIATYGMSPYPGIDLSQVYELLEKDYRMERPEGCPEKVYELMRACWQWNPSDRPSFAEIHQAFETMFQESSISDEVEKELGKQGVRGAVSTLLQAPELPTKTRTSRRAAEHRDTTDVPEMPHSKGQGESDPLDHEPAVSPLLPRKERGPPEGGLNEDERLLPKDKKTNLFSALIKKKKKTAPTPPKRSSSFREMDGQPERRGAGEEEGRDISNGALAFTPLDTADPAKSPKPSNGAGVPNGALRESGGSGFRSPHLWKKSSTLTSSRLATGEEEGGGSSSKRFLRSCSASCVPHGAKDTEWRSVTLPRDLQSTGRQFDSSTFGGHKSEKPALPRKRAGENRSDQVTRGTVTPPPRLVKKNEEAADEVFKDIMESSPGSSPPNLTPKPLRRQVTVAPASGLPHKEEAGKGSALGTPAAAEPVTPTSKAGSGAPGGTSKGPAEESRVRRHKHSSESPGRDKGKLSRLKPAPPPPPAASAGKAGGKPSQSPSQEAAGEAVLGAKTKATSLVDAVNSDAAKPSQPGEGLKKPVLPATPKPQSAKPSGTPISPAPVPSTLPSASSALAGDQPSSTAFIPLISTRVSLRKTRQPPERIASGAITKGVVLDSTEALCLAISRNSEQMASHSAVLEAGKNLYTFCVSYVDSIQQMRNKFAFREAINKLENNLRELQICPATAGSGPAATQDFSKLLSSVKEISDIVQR
Background: In TR-FRET formats the signal depends on donor and acceptor labels being close together.

The target in a further test is GSK3β (Homo sapiens, UniProt P49841). As to the kind of experiment: HTRF Transcreener ADP kinase assay. The note with it: for IC50: HTRF Transcreener ADP assay. How it is done: as §2, §3
Chain of GSK3β (P49841 whole entry): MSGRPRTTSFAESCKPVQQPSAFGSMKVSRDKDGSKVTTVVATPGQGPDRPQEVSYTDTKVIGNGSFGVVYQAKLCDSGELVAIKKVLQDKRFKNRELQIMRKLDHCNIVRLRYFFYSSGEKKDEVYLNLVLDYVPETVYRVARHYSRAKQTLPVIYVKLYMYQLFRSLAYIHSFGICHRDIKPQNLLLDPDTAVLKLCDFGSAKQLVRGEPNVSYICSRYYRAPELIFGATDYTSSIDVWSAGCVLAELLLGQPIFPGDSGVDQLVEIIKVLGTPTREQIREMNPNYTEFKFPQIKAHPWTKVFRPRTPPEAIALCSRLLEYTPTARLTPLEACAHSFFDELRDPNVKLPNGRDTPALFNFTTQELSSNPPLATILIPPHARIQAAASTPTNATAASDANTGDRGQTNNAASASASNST
A further test has as its target FLT3 (Homo sapiens, UniProt P36888). Nature of the test: HTRF Transcreener ADP kinase assay. How it is done:
as §2, §3

The target in a further test is T4, GCK/MAP4K2 (Homo sapiens, UniProt Q12851).
T4 sequence (Q12851 1-820): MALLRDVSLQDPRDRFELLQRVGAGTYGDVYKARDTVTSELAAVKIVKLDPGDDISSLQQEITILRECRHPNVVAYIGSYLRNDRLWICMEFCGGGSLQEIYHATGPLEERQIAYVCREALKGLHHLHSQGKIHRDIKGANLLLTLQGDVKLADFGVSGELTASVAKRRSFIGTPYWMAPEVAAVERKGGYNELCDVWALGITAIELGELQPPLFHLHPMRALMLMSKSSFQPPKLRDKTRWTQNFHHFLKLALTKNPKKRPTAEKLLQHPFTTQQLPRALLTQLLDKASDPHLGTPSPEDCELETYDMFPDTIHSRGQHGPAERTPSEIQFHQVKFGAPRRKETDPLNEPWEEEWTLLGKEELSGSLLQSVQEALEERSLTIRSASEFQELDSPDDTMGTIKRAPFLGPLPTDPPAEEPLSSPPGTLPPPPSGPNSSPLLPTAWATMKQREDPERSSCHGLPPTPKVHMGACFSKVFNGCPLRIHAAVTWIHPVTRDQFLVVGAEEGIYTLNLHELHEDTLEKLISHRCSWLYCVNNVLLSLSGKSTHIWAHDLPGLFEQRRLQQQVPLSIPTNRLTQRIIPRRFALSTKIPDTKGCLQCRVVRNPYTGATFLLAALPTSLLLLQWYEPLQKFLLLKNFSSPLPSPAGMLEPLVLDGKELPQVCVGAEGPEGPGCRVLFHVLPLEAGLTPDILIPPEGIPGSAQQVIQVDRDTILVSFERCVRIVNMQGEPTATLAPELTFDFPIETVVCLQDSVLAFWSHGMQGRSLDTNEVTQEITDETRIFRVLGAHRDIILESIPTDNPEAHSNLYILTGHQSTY
As to the kind of experiment: HTRF Transcreener ADP kinase assay. The note with it: for IC50: HTRF Transcreener ADP assay. How it is done:
as §2, §3

The target in another test is KHS/MAP4K5 (Homo sapiens, UniProt Q9Y4K4). Nature of the test: HTRF Transcreener ADP kinase assay. The note with it: for IC50: HTRF Transcreener ADP assay. How it is done:
as §2, §3

The target in the next test is MLK3/MAP3K11 (Homo sapiens, UniProt Q16584). Nature of the test: HTRF Transcreener ADP kinase assay. The note with it: for IC50: HTRF Transcreener ADP assay. As for the experimental part: as §2, §3
Chain of MLK3/MAP3K11 (Q16584 whole entry): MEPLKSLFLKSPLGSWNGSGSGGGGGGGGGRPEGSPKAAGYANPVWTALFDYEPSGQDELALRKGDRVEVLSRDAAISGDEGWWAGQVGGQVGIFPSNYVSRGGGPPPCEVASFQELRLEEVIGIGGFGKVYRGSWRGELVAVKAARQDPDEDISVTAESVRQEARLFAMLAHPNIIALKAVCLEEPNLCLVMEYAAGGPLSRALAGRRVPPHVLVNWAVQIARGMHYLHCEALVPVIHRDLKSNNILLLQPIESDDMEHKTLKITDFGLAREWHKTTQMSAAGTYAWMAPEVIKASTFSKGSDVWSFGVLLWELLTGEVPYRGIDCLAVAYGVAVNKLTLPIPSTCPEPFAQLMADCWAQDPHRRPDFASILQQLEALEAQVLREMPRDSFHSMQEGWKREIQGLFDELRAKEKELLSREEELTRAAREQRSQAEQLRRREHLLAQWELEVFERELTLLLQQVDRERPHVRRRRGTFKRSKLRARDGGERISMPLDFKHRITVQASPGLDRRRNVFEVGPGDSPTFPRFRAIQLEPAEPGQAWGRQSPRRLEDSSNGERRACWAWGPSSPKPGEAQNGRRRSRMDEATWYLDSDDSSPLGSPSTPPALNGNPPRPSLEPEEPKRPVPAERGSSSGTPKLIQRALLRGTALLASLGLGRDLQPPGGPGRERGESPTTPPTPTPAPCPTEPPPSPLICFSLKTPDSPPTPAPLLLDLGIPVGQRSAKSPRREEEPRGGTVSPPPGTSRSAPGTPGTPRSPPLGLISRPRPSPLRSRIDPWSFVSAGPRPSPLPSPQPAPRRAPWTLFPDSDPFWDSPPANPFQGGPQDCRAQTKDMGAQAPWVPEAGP

Chain of MLK1/MAP3K9 (P80192 whole entry): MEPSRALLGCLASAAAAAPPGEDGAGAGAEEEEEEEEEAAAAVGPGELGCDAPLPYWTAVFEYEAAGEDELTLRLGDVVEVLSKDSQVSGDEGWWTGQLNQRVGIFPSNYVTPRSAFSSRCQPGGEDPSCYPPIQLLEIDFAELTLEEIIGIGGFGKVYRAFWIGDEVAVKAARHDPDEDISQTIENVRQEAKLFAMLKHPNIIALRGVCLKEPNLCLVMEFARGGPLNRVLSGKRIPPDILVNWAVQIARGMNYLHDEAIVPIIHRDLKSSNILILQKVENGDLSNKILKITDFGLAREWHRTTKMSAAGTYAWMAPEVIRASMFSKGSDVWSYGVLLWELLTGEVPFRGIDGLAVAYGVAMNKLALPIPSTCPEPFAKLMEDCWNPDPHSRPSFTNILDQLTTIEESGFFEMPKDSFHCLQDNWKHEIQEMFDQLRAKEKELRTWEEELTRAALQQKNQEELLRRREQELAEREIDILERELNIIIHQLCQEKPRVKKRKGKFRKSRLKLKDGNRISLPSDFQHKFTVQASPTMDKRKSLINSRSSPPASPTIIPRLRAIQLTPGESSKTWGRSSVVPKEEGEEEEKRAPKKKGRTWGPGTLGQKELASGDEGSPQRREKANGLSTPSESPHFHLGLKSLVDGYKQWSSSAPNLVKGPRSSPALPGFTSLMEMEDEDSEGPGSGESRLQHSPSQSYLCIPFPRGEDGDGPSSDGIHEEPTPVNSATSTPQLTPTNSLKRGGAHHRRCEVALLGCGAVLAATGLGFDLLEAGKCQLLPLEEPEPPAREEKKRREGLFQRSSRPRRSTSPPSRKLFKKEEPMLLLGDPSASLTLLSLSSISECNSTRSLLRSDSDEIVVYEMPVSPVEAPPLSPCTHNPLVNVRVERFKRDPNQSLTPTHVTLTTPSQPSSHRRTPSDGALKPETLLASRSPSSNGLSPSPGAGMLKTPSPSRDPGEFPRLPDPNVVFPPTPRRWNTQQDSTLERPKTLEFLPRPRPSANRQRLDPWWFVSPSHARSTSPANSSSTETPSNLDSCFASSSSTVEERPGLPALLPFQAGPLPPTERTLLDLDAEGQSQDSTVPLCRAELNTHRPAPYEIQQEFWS
T3 sequence (P54764 20-986): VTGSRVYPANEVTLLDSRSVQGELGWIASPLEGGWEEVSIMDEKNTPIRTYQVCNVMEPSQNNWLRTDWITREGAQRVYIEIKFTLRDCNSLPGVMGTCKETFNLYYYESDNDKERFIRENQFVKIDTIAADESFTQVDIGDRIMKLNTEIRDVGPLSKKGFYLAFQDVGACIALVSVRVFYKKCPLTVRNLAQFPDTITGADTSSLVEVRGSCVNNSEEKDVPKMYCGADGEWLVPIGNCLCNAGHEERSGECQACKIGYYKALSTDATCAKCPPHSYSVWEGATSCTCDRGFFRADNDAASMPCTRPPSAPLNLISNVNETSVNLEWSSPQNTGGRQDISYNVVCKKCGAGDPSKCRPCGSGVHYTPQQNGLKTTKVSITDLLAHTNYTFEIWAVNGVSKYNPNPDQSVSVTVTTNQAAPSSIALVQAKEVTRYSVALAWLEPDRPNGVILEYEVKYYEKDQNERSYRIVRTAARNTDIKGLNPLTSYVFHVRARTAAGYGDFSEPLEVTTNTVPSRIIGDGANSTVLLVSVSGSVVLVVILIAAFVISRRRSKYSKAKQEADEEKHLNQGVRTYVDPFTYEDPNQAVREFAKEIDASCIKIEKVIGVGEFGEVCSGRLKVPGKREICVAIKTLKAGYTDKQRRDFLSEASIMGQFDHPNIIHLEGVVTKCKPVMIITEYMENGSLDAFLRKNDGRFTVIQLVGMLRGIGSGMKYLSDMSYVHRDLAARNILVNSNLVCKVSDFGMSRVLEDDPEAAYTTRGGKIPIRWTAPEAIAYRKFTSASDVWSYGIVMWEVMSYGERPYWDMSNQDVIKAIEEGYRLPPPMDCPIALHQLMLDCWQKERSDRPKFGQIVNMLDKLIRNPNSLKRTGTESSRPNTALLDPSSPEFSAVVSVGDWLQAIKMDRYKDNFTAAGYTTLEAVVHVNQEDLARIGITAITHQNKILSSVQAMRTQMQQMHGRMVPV

In general, IC50 refers to the midpoint of a concentration-inhibition curve. The low end stands for higher potency, the high end for lower potency. On to `COCCOc1ccc(-c2cn(-c3ccccc3)c3nc[nH]c(=O)c23)cc1` [DMX-5804, 5-[4-(2-methoxy-ethoxy)-phenyl]-7-phenyl-3,7-dihydro-pyrrolo[2,3-d]pyrimidin-4-one], for which the remaining activity at 1 µM stood at 41% on MAP4K3, 114% at CAMK1 and 105% at EPH-A4. Further, the IC50 on MLK1/MAP3K9 (MLK1/MAP3K9) is 64.6 nM; on ABL1 (ABL1), 1580 nM; on GSK3β (GSK3β), 21900 nM; on GCK/MAP4K2 (GCK/MAP4K2), 316 nM; on KHS/MAP4K5 (KHS/MAP4K5), 437 nM; on MLK3/MAP3K11 (MLK3/MAP3K11), 102 nM. In addition, the “Fold Selectivity” value was 23 on MLK1/MAP3K9 (MLK1/MAP3K9 versus MAP4K4); 560 at ABL1 (ABL1 versus MAP4K4); 7762 on GSK3β (GSK3β versus MAP4K4); 112 at GCK/MAP4K2 (GCK/MAP4K2 versus MAP4K4); 153 at KHS/MAP4K5 (KHS/MAP4K5 versus MAP4K4); 36 at MLK3/MAP3K11 (MLK3/MAP3K11 versus MAP4K4). For the same molecule, the “DMX-5804 vs F1386-0303” value was 1.53 on MLK1/MAP3K9 (ratio of fold selectivity, MLK1/MAP3K9); 0.65 on ABL1 (ratio of fold selectivity, ABL1); 10.00 on GSK3β (ratio of fold selectivity, GSK3β); 18.22 on FLT3 (ratio of fold selectivity); 3.20 on GCK/MAP4K2 (ratio of fold selectivity, GCK/MAP4K2); 0.88 at KHS/MAP4K5 (ratio of fold selectivity, KHS/MAP4K5). The “DMX-5804 vs F1386-0303” value at MLK3/MAP3K11 (ratio of fold selectivity, MLK3/MAP3K11) is given as 1.57.

In the case of `Oc1ncnc2c1c(-c1ccccc1)cn2-c1ccccc1` [F1386-0303, 5,7-diphenyl-7H-pyrrolo[2,3-d]pyrimidin-4-ol], the remaining activity at 1 µM on MAP4K3 was 84%; at CAMK1, 97%; on EPH-A4, 92%. The IC50 is 525 nM against MLK1/MAP3K9 (MLK1/MAP3K9); 30200 nM at ABL1 (ABL1); 26900 nM on GSK3β (GSK3β); 2190 nM at FLT3 (HTRF Transcreener ADP assay); 1230 nM on GCK/MAP4K2 (GCK/MAP4K2); 6030 nM against KHS/MAP4K5 (KHS/MAP4K5). This molecule had an IC50 at MLK3/MAP3K11 (MLK3/MAP3K11) of 813 nM.

As usually defined, the residual activity is the share of the control activity or signal that is left under treatment. For the molecule `Nc1ncc(C(=O)NC2CN(C(=O)C3CC3)C2)c2ccc(-c3cccc(F)c3)nc12` [GNE-495], the residual activity was found to be 7% at MAP4K3 (1 μM), 93% at CAMK1 (1 μM) and 72% on EPH-A4 (1 μM).

On to `O=C1Nc2ccc(I)cc2/C1=C/c1cc(Br)c(O)c(Br)c1` [GW5074], for which the remaining activity at 1 µM on MAP4K3 amounted to 31%; on CAMK1, 70%; on EPH-A4, 91%.

In the case of `O=C1Cc2c([nH]c3ccc(Br)cc23)-c2ccccc2N1` [Kenpaullone], the remaining activity at 1 µM stood at 14% at MAP4K3, 103% on CAMK1 and 96% on EPH-A4.

The values above are taken from publication PMC6458995, “MAP4K4 Inhibition Promotes Survival of Human Stem Cell-Derived Cardiomyocytes and Reduces Infarct Size In Vivo” (Cell Stem Cell, 2019).
